Data: BindingDB's records for PubMed 1738111 (University of Texas, 1992)
pKi: −log10 of the molar value.

Biological target: 5-hydroxytryptamine receptor 1B (Rattus norvegicus, UniProt P28564)
Sequence (P28564 whole entry): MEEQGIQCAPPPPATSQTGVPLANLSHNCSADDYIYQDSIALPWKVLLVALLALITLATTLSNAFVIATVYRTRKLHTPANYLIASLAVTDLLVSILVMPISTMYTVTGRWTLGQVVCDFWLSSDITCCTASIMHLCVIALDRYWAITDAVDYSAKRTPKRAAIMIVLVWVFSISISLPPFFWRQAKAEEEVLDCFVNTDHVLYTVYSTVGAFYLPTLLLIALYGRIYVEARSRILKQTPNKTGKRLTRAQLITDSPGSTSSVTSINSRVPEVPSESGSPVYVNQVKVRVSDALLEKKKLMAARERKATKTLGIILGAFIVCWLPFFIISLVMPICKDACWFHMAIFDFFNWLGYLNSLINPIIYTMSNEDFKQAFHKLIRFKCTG

Compound | pKi
CN1C2CCC1CC(OC(=O)c1c[nH]c3ccccc13)C2 (stereo unspecified) | < 5.00
CC[C@@H](CO)NC(=O)[C@@H]1C=C2c3cccc4c3c(cn4C)C[C@H]2N(C)C1 | 6.41
Clc1cccc(Cl)c1N=C1NCCN1 [2-(2,6-dichloroanilino)-2-imidazoline] | < 5.00
c1ccc2nc(N3CCNCC3)ccc2c1 [2-Piperazin-1-yl-quinoline (Quipazine)] | 6.60
O=C(c1ccc(F)cc1)C1CCN(CCn2c(=O)[nH]c3ccccc3c2=O)CC1 [3-(2-{4-[(4-fluorophenyl)carbonyl]piperidin-1-yl}ethyl)-1,2,3,4-tetrahydroquinazoline-2,4-dione] | < 5.00
O=C(CCCN1CCC2(CC1)C(=O)NCN2c1ccccc1)c1ccc(F)cc1 [8-[4-(4-fluorophenyl)-4-oxidanylidene-butyl]-1-phenyl-1,3,8-triazaspiro[4.5]decan-4-one] | < 5.00
CN1CCN(c2nc3cc(C(F)(F)F)ccc3n3cccc23)CC1 [CAS_109028-10-6] | 7.49
CN1C2CCC1CC(OC(=O)c1cc(Cl)cc(Cl)c1)C2 (stereo unspecified) [MDL 72222] | < 5.00
CN1C[C@@H](NS(=O)(=O)N(C)C)C[C@@H]2c3cccc4c3c(cn4C)C[C@H]21 [MESULERGINE] | < 5.00
NCC(O)c1ccc(O)c(O)c1 (stereo not drawn) [Noradrenaline,(+)] | < 5.00
Cc1ccc(N(CC2=NCCN2)c2cccc(O)c2)cc1 [SMR000059054] | 6.06
FC(F)(F)c1cccc(N2CCNCC2)c1 [TFMPP] | 7.08
NCCc1c[nH]c2ccc(C(N)=O)cc12 [[3H]-5-carboxamidotryptamine] | 8.40
COc1cc2nc(N3CCN(C(=O)c4ccco4)CC3)nc(N)c2cc1OC [[3H]-Minipress] | 6.54
Clc1cccc(N2CCNCC2)c1 [mCPP] | 7.02
CSc1ccc2c(c1)C(N1CCN(C)CC1)Cc1ccccc1S2 (stereo unspecified) [methanesulfonic acid;1-methyl-4-(3-methylsulfanyl-5,6-dihydrobenzo[b][1]benzothiepin-5-yl)piperazine] | 7.02
